Results: US20230390189A1, “OCULAR IMPLANT CONTAINING AN ACTIVE INGREDIENT” (OCULAR THERAPEUTIX, INC., priority 2020, published 2023)
One block for each compound: values may come before it.

Experiments:
[1] = tested on: VEGF-induced vascular leakage; assay: VEGF challenge, vascular leakage scored by fluorescein angiography; format: in vivo, Dutch belted rabbits; conditions: 1.25 mg Avastin alone (group 3); similar degree as control
[2] = 1.25 mg intravitreal; cited from earlier work
[3] = cited from earlier work; for t1/2 in the human eye: in vivo
Solubility of axitinib = format: physicochemical

Compound: Avastin: anti-VEGF therapeutic, 1.25 mg intravitreal
Vascular leakage after VEGF challenge, late [1]: after 3 months vascular leakage re-occurred
Half-life in rabbits [2]: 158 h

Compound: aflibercept: anti-VEGF agent, large molecule
t1/2 in the human eye [3]: several days

Solubility of axitinib in 25% ethanol/75% water mix (v/v) (Solubility of axitinib): approximately 19 μg/mL
Compound: CNC(=O)c1ccccc1Sc1ccc2c(/C=C/c3ccccn3)n[nH]c2c1 [axitinib, N-methyl-2-[3-((E)-2-pyridin-2-yl-vinyl)-1H-indazol-6-ylsulfanyl]-benzamide]
Clearance half-life (t1/2) ([3]; patients, oral (Rugo et al.)): a few hours

Compound: ranibizumab: anti-VEGF agent, large molecule
t1/2 in the human eye [3]: several days
